The values that follow come from patent US9504747B2, “Lipids and lipid compositions for the delivery of active agents” (Novartis AG, priority 2013, dated 2016).

By pKa is commonly meant the negative logarithm of the acid dissociation constant.

Data set [1] is described as follows: pKa measurement of the cationic lipid (TNS fluorescence vs pH). The following applies: probe TNS (fluorescent probe), pKa of the cationic lipid of formula (I). The data set is classed as physicochemical. Put shortly:
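Lipid (2 mM ethanol stock) mixed with TNS probe (0.3 mM stock) and diluted into twelve sodium phosphate/citric acid buffers of varying pH. TNS fluorescence read after background subtraction and normalized to the lowest-pH value. pKa taken as the pH at half-maximal normalized fluorescence on the smoothed curve, precise to about 0.1 units.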

A short description of data set [2]: Polydispersity index (PDI) of the lipid nanoparticle (dynamic light scattering). The class given is physicochemical. In a few lines: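 LNPs made by impinging-jet mixing of lipids in ethanol with siRNA in citrate buffer, pH 4-6, siRNA:total lipid ~0.05 wt/wt; sterile filtered, stored at 4° C. Samples diluted in PBS to ~200-400 kcts count rate before dynamic light scattering. PDI reported as intensity-weighted average of fully formed particles.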

The next data set concerns PLK-1 mRNA. In words: LS411N Xenograft Assay with PLK1-424 siRNA lipid nanoparticles. The data set is classed as in vivo, Female Nu/Nu mice. The following applies: percent knock down of PLK-1 mRNA in tumor vs control, 3 mg/kg IV daily for three days, 24 h post last injection. As for the experimental part: Female Nu/Nu mice (6-8 weeks old) were implanted subcutaneously with 5×10^6 LS411N cells. Tumor growth was monitored by caliper measurement before treatment initiation. Mice bearing 150-250 mm^3 subcutaneous tumors were randomized and enrolled in the study. The stock siRNA formulations were diluted to […] with PBS for dosing. Animals enrolled in different groups received a single daily bolus IV injection of 3 mg/kg siRNA for three days. Tumors were harvested 24 hours post last injection to assess target gene regulation by qRT-PCR.
Lipid nanoparticles comprising lipid compounds of formula (I) and the PLK1-424 siRNA duplex sequence listed above were tested in the LS411N Xenograft Assay. The results of this assay are given in Table 5 below as a percent knock down of PLK-1 mRNA as compared to the control when administered as a single daily dose for three days at a dose of 3 mg/kg.

A short description of data set [3]: Particle size of the lipid nanoparticle (dynamic light scattering, Malvern Zetasizer). The data set is classed as physicochemical. Conditions: Z-average. The source says: The lipid nanoparticles have a size of about 1 to about 2,500 nm, about 1 to about 1,500 nm, about 1 to about 1,000 nm, in a sub-embodiment about 50 to about 600 nm, in a sub-embodiment about 50 to about 400 nm, in a sub-embodiment about 50 to about 250 nm, and in a sub-embodiment about 50 to about 150 nm. Unless indicated otherwise, all sizes referred to herein are the average sizes (diameters) of the fully formed nanoparticle, as measured by dynamic light scattering on a Malvern Zetasizer. The nanoparticle sample is diluted in phosphate buffered saline (PBS) so that the count rate is approximately 200-400 kcts. The data is presented as a weighted average of the intensity measure. The lipid nanoparticles (LNPs) were formed by mixing equal volumes of lipids dissolved in alcohol with siRNA dissolved in a citrate buffer by an impinging jet process. […] The siRNA to total lipid ratio is approximately 0.05 (wt/wt). Where a LNP formulation contains four lipid components, the molar ratios correspond to the type of lipid as it appears in the first four columns of the table, in the order that they appear. The ratio of the lipids ranges from 20 to 70 mole percent for the cationic lipid with a target of 40-60, the mole percent of helper lipid ranges from 20 to 70 with a target of 30 to 50, the mole percent of neutral lipid ranges from 0-30, the mole percent of PEG lipid has a range from 1 to 6 with a target of 2 to 5. The concentration of siRNA solution ranges from 0.7 to 1.0 mg/mL with a target of 0.8 to 0.9 mg/mL in a sodium citrate: sodium chloride buffer pH 4-6, with a target of 4.5-5.5. The LNPs are formed by mixing equal volumes of lipid solution in ethanol with siRNA dissolved in a citrate buffer by an impinging jet process through a mixing device with ID ranging from 0.25 to 2.0 mm at a flow rate from 10 to 640 mL/min. The mixed LNP solution is held at room temperature for 0-24 hrs prior to a dilution step. […] The final product is sterile filtered and stored at 4° C. Unless indicated otherwise, all particle size measurements referred to in Tables 4 and 5 are the Z-average particle size of the fully formed nanoparticle, as measured by dynamic light scattering on a Malvern Zetasizer. The nanoparticle sample was diluted in phosphate buffered saline (PBS) so that the count rate is approximately 200-400 kcts.

Setting [4] is: Table 4, FVII siRNA LNP, Chol/DSPC/stealth lipid PEG-DMG, 45/44/9/2.
The mark [5] stands for this setting: Table 4, FVII siRNA LNP, Chol/DSPC/stealth lipid S010, 45/44/9/2.
[6] abbreviates: Table 5, PLK1-424 siRNA LNP, stealth lipid PEG-DSG, 45/44/9/2.
The mark [7] stands for this setting: Table 5, PLK1-424 siRNA LNP, stealth lipid S010, 45/44/9/2.
[8] abbreviates: Table 4, FVII siRNA LNP, Chol/DSPC/stealth lipid PEG-DMG, molar ratio 45/44/9/2.
The mark [9] stands for this setting: Table 4, FVII siRNA LNP, Chol/DSPC/stealth lipid S010, molar ratio 45/44/9/2.
The mark [10] stands for this setting: Table 5, PLK1-424 siRNA LNP, Chol/DSPC/stealth lipid PEG-DSG, 45/44/9/2.
Setting [11] is: Table 5, PLK1-424 siRNA LNP, Chol/DSPC/stealth lipid S010, 45/44/9/2.

In the case of `CCCCC/C=C\C/C=C\CCCCCCCC(=O)OCCCCOc1cc(CN(C)C)cc(OCCCCOC(=O)CCCCCCC/C=C\C/C=C\CCCCC)c1` [Example 38], the pKa in data set [1] (Table 4) and in data set [1] (Table 5) was 5.93 in each case. Further, the PDI in data set [2] (setting [4]) turned out to be 0.02; in data set [2] (setting [5]), 0.04; in data set [2] (setting [6]) it was 0.036; in data set [2] (setting [7]), 0.036. In addition, the figures for the “LS411 KD 3 × 3 mg/Kg” value in the data set on PLK-1 mRNA (stealth lipid PEG-DSG) and in the data set on PLK-1 mRNA (stealth lipid S010) were 58% and 60%, respectively. In addition, the “Size (nm)” value in data set [3] (setting [8]) came to 108.0 nm; in data set [3] (setting [9]), 120 nm; in data set [3] (setting [10]), 116.8 nm; in data set [3] (setting [11]), 116.8 nm.

With `CCCCC/C=C\C/C=C\CCCCCCCC(=O)OCCCOc1cc(CN(C)C)cc(OCCCOC(=O)CCCCCCC/C=C\C/C=C\CCCCC)c1` [Example 39], the pKa in data set [1] (Table 4) and in data set [1] (Table 5) was 5.91 each time. Also, the PDI in data set [2] (setting [5]) came to 0.044; in data set [2] (setting [7]), 0.039. Also, in the data set with PLK-1 mRNA (stealth lipid S010), the “LS411 KD 3 × 3 mg/Kg” value amounted to 55%. Further, the “Size (nm)” value in data set [3] (setting [9]) was determined as 122.9 nm; in data set [3] (setting [11]), 114.3 nm.

Regarding `CCCCCCCC(=O)OCCCCCCCCOc1cc(CN(C)C)cc(OCCCCCCCCOC(=O)CCCCCCC)c1` [Example 42], the pKa in data set [1] (Table 4) and in data set [1] (Table 5) was 5.93 throughout. The PDI in data set [2] (setting [5]) worked out at 0.084; in data set [2] (setting [7]), 0.06. For the same compound, the “LS411 KD 3 × 3 mg/Kg” value with PLK-1 mRNA (stealth lipid S010) worked out at 50%. The entries for the “Size (nm)” value in data set [3] (setting [9]) and in data set [3] (setting [11]) were 120 nm and 181.1 nm, respectively.

Turning to `CCCCCCCC(=O)OCCCCCCCCCCOc1cc(CN(C)C)cc(OCCCCCCCCCCOC(=O)CCCCCCC)c1` [Example 43], the pKa in data set [1] (Table 4) and in data set [1] (Table 5) was 5.85 throughout. Moreover, the results for the PDI in data set [2] (setting [4]), in data set [2] (setting [5]) and in data set [2] (setting [7]) were 0.08, 0.066 and 0.046, respectively. In addition, in the data set with PLK-1 mRNA (stealth lipid S010), the “LS411 KD 3 × 3 mg/Kg” value came to 40%. In addition, the “Size (nm)” value in data set [3] (setting [8]) is 157.8 nm; in data set [3] (setting [9]) it was 121.9 nm; in data set [3] (setting [11]), 150.7 nm.

With `CCCCCCCCCC(=O)OCCCCCCCCOc1cc(CN(C)C)cc(OCCCCCCCCOC(=O)CCCCCCCCC)c1` [Example 52], the pKa in data set [1] (Table 4) and in data set [1] (Table 5) was 5.96 throughout. Further, the PDI in data set [2] (setting [4]) was 0.1; in data set [2] (setting [5]), 0.052; in data set [2] (setting [6]), 0.06; in data set [2] (setting [7]) it was 0.06. Moreover, the results for the “LS411 KD 3 × 3 mg/Kg” value in the data set with PLK-1 mRNA (stealth lipid PEG-DSG) and in the data set with PLK-1 mRNA (stealth lipid S010) were 69% and 50%, respectively. In addition, the “Size (nm)” value in data set [3] (setting [8]) stood at 109.4 nm; in data set [3] (setting [9]), 145.4 nm; in data set [3] (setting [10]) it was 132.2 nm; in data set [3] (setting [11]), 132.2 nm.

For `CCCCCCCCCCOC(=O)CCCCCCCOc1cc(CN(C)C)cc(OCCCCCCCC(=O)OCCCCCCCCCC)c1` [Example 57], the pKa in data set [1] (Table 4) and in data set [1] (Table 5) was 5.94 in each case. The PDI in data set [2] (setting [4]) is listed as 0.03; in data set [2] (setting [5]), 0.059; in data set [2] (setting [7]), 0.038. Further, the “LS411 KD 3 × 3 mg/Kg” value in the data set with PLK-1 mRNA (stealth lipid S010) came to 60%.

With `CCCCC/C=C\C/C=C\CCCCCCCC(=O)OCCCCOc1cc(CN(C)C)cc(OCCCCOC(=O)CCCCCCC/C=C\CCCCCCCC)c1` [Example 63], the pKa in data set [1] (Table 4) was determined as 5.92; in data set [1] (Table 5), 5.9. Besides, the PDI in data set [2] (setting [5]) worked out at 0.057; in data set [2] (setting [6]), 0.047. Also, the “LS411 KD 3 × 3 mg/Kg” value in the data set on PLK-1 mRNA (stealth lipid PEG-DSG) was 66%.

Turning to `CCCCCCCC(=O)OCC(CCOc1cc(CN(C)C)cc(OCCC(COC(=O)CCCCCCC)OC(=O)CCCCCCC)c1)OC(=O)CCCCCCC` (stereo not shown) [Example 91], the pKa in data set [1] (Table 4) and in data set [1] (Table 5) was 6.01 throughout. In addition, the PDI amounted to 0.06 in data set [2] (setting [4]), 0.053 in data set [2] (setting [5]) and 0.032 in data set [2] (setting [7]). For the same compound, the “LS411 KD 3 × 3 mg/Kg” value in the data set on PLK-1 mRNA (stealth lipid S010) is reported as 45%.
